Here are results for 21 compounds from PubChem BioAssay (NCI).

Assay in all cases: DTP human tumour cell line panel, 48 h
In test [1] the test system is ACHN renal.
Test [2] concerns OVCAR-4 ovarian.
For test [3], the system named is SN12C renal.
Test [4] has as its system DMS 273 small cell lung.
The test system of test [5] is SK-MEL-28 melanoma.
For test [6], the system named is OVCAR-5 ovarian.
Test [7] has as its system HCC-2998 colon.
Test [8] concerns PC-3 prostate.
Test [9] relates to NCI/ADR-RES ovarian.
Test [10] relates to XF 498 CNS.

Each structure is given as a SMILES string.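 All cell lines were grown in 96-well plates and treated with compound for 48 hours. Here, GI50 denotes the concentration required for 50% inhibition of growth. TGI: total growth inhibition.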

A word on the TGI: it is the concentration at which net growth stops. Low readings indicate more potent growth arrest, high ones less potent growth arrest. As for `Cc1cc(=O)[nH]c(NNC(C#N)c2cccc([N+](=O)[O-])c2)n1` (stereo not drawn), the TGI in [1], in test [2], in [3], in [4], in test [5] and in test [6] was > 100 µM each time.
As for `CCOc1ccc(NC(=O)/C(CC(=O)c2c[n+](=O)c3ccccc3n2[O-])=N\OCCCc2ccccc2)cc1`, the TGI in test [1], in test [2], in test [3], in test [4], in test [5] and in [7] was > 100 µM each time. Also, the TGI in test [6] is > 100 µM.
As for `COc1cc(C)c2c(c1)CN1CN2Cc2cc(OC)cc(C)c21`, the TGI in test [1], in [2], in [3], in test [4] and in test [6] was > 100 µM in each case.
The term GI50 denotes the concentration that inhibits growth by half. `C[C@@]1(F)[C@H](O)[C@@H](CO)O[C@H]1n1ccc(=O)[nH]c1=O`: the GI50 in test [1], in test [2], in test [8], in [3], in [5] and in test [7] was > 100 µM in each case. The GI50 in test [6] and in test [9] was > 100 µM each time. In addition, the TGI in [1], in test [2], in test [8], in test [3], in [5] and in test [7] was > 100 µM each time. The TGI in [6] and in [9] was > 100 µM in each case.
`O=C1C(=O)c2c(nc3ccc(C(F)(F)F)cn23)-c2ccccc21`: the GI50 in test [1] was 0.185 µM; in [2], 0.137 µM; in test [8] it was 0.21 µM; in test [3] it was 0.186 µM; in [5] it was 0.221 µM; in [7], 0.499 µM. The results for the GI50 in [6] and in test [9] were 0.414 µM and 0.23 µM, respectively. The TGI amounted to 0.381 µM in test [1]; 0.271 µM in test [2]; 0.761 µM in [8]; 0.354 µM in test [3]; 0.431 µM in [5]; 0.988 µM in [7]. Also, the TGI in [6] came to 0.998 µM; in test [9], 0.581 µM.
`CC1(C)CC(C)(C)c2cc(NC(=S)Nc3ccc([N+](=O)[O-])cc3)ccc2S1`: the GI50 in test [1] was 10.1 µM; in test [2], 14.8 µM; in test [8], 9.69 µM; in test [3], 10.3 µM; in [5], 17.2 µM; in test [7], 4.42 µM. The GI50 in [6] was 14.2 µM; in [9], 13.9 µM. The TGI in [1] was found to be 24.6 µM; in test [2], 60.4 µM; in [8], 22.4 µM; in test [3], 22.2 µM; in test [5], 68.5 µM; in test [7] it was 24.6 µM. Moreover, the TGI in test [6] was determined as 49.3 µM; in test [9], 48.2 µM.
In the case of `O=c1c(Cc2ccccc2)c(O)cc2n1CCC2`, the TGI in test [1], in test [2], in test [3], in test [10], in [5] and in [7] was > 100 µM each time. Besides, the TGI in test [6] was > 100 µM.
As to `C=C1C(=O)O[C@@H]2/C=C(/C)[C@@H](OC(C)=O)C/C=C(\C)C(O)[C@@H](OC(=O)/C(C)=C\C)C12` (stereo partly drawn), the TGI is 40.8 µM in [1]; > 100 µM in test [2]; > 100 µM in test [8]; 43.1 µM in [3]; 32.1 µM in test [5]; 55.4 µM in [7]. In addition, the figures for the TGI in test [6] and in test [9] were > 100 µM and 76.5 µM, respectively.
Turning to `COc1ccc2[nH]c(C(=O)N3CCN(C(=O)OCc4ccc5c(Cl)cc(Cl)c(O)c5n4)CC3)cc2c1`, the GI50 in [1] is 0.592 µM; in test [2], 1.53 µM; in test [8], 1.06 µM; in test [3] it was 1.27 µM; in [5], 1.58 µM; in [7] it was 1.7 µM. For the same compound, the GI50 in test [6] is 1.61 µM; in [9], 1.83 µM. For the same compound, the TGI in [1] came out at 1.87 µM; in test [2], 3.07 µM; in test [8] it was 2.67 µM; in test [3], 2.56 µM; in [5], 2.94 µM; in [7], 3.32 µM. Moreover, the TGI is 3.08 µM in test [6] and 6.37 µM in test [9].
Regarding `CSc1nc(Nc2cccc(NC(=O)CCl)c2)c(C#N)c(-c2cccc([N+](=O)[O-])c2)n1`, the GI50 in test [1] was 0.534 µM; in test [2] it was 2.06 µM; in test [8], 1.61 µM; in test [3] it was 2.78 µM; in test [5], 2.15 µM; in test [7] it was 2.07 µM. Besides, the GI50 in [6] is 2.45 µM; in test [9], 2.38 µM. The TGI in [1] turned out to be 1.91 µM; in test [2], 6.77 µM; in test [8] it was 3.73 µM; in test [3], 10.3 µM; in test [5] it was 4.28 µM; in [7], 4.37 µM. Besides, the TGI is 6.13 µM in [6] and 7.64 µM in test [9].
For the compound `COc1cc(C2CC(c3ccc(Nc4nc(NCCO)nc(NCCO)n4)cc3)=NN2c2cc(Cl)cc(Cl)c2)cc(OC)c1OC` (stereo not drawn), the GI50 in test [1] was 2.58 µM; in test [2] it was 1.63 µM; in test [8], 1.04 µM; in test [3] it was 1.75 µM; in test [5], 1.53 µM; in test [7] it was 2.14 µM. The GI50 in [6] is 2.15 µM; in test [9], 3.37 µM. Further, the TGI in [1] was 13.1 µM; in test [2] it was 3.66 µM; in test [8], 3.61 µM; in [3] it was 3.82 µM; in test [5], 3.14 µM; in test [7] it was 4.84 µM. Moreover, the TGI was 7.56 µM in test [6] and 12.8 µM in test [9].
On to `COc1cccc2c1C(=O)c1c(O)c3c(c(O)c1C2=O)C[C@@](O)(C(C)=O)CC3OC1CC(OC2CC(N)C(O)C(C)O2)C(O)C(C)O1` (stereo partly drawn), for which the TGI in test [1], in test [2], in test [8], in [3], in test [5] and in test [7] was > 100 µM throughout. Besides, the TGI in [6] and in test [9] was > 100 µM in each case.
As for `CC1=NN(c2cccc(Cl)c2)C(=O)/C1=C\c1cn(CC(O)CN2CCCCC2)c2ccccc12` (stereo not drawn), the GI50 in test [1] was 3.18 µM; in test [2], 13.3 µM; in test [8] it was 9.81 µM; in test [3], 12.3 µM; in [5] it was 1.82 µM; in test [7], 6.12 µM. Further, the results for the GI50 in test [6] and in test [9] were 14.6 µM and 4.79 µM, respectively. Also, the TGI came to 14.6 µM in test [1]; 28.1 µM in test [2]; 26.1 µM in [8]; 35.3 µM in test [3]; 3.47 µM in test [5]; 19.2 µM in [7]. The TGI in test [6] came to 33.9 µM; in [9], 20.7 µM.
On to `CN1CCN(C2=NC(=O)/C(=C\c3ccc(N(C)C)cc3)S2)CC1`, for which the GI50 in test [1], in test [2], in [8], in [3], in [5] and in [7] was > 100 µM throughout. Further, the GI50 in test [6] and in test [9] was > 100 µM each time. For the same compound, the concentration for total growth inhibition (TGI) in test [1], in [2], in [8], in test [3], in test [5] and in test [7] was > 100 µM throughout. Also, the TGI in test [6] and in [9] was > 100 µM throughout.
With `Clc1ccccc1C(Nc1cnccn1)Nc1cnccn1`, the TGI in [1], in [2], in [8], in [3], in test [5] and in test [7] was > 100 µM each time. For the same compound, the TGI in test [6] and in [9] was > 100 µM in each case.
In the case of `CCN(CC)C(=S)SSC(C)C`, the GI50 in test [1] was 17.2 µM; in test [2] it was 13.4 µM; in test [8], 14.1 µM; in [3], 14.3 µM; in test [5] it was 11.1 µM; in test [7], 16.8 µM. Moreover, the GI50 in test [6] was 18.3 µM; in test [9], 16 µM. Further, the TGI stood at 33.3 µM in test [1]; 26.2 µM in test [2]; 29.2 µM in [8]; 30.5 µM in [3]; 23.1 µM in [5]; 31.1 µM in [7]. The values for the TGI in test [6] and in test [9] were 32.6 µM and 35.7 µM, respectively.
Regarding `COc1ccc(-c2ccc(OC)c(OC)c2OC)cc1`, the GI50 in [1] is 8 µM; in test [2], 5.42 µM; in test [8], 3.62 µM; in [3], 6.88 µM; in test [5] it was 14.9 µM; in test [7], 2.65 µM. Moreover, the GI50 was 8.66 µM in test [6] and 0.529 µM in [9]. Also, the TGI was > 100 µM in [1]; > 100 µM in test [2]; > 100 µM in test [8]; > 100 µM in test [3]; > 100 µM in [5]; 32 µM in test [7]. Besides, the values for the TGI in [6] and in test [9] were > 100 µM and 5.38 µM, respectively.
`OCc1ccc(N(Cc2ccc(F)cc2)Cc2ccc(F)cc2)cc1Cl`: the GI50 in test [1] was 10.9 µM; in [2], 3.01 µM; in test [8] it was 9.08 µM; in [3], 11.5 µM; in test [5] it was 13.9 µM; in test [7] it was 14.3 µM. The figures for the GI50 in test [6] and in test [9] were 2.11 µM and 12.3 µM, respectively. Also, the TGI in [1] is 23 µM; in test [2] it was 14.7 µM; in test [8] it was 22.8 µM; in test [3], 26 µM; in [5] it was 27.6 µM; in [7] it was 30.8 µM. Also, the TGI in test [6] was 11.9 µM; in test [9], 30.4 µM.
Consider `Cc1ccc(/C(=N/Nc2ccc([N+](=O)[O-])cc2)Sc2cc(Cl)c(C)cc2S(N)(=O)=O)cc1`, for which the GI50 in test [1] is 2.37 µM; in test [2], 1.28 µM; in [8], 1.79 µM; in test [3], 1.69 µM; in test [5], 3.03 µM; in [7], 1.76 µM. The GI50 in [6] is 2.45 µM; in [9], 2.03 µM. In addition, the TGI was found to be 6.51 µM in test [1]; 3.75 µM in [2]; 4.47 µM in [8]; 3.95 µM in test [3]; 8.9 µM in [5]; 3.66 µM in test [7]. In addition, the TGI in [6] was determined as 6.16 µM; in test [9], 4.91 µM.
As to `CCC[CH2][Sn-]([CH2]CCC)([CH2]CCC)[O]C(=O)C(C)C`, the GI50 was 0.142 µM in test [1]; 0.0538 µM in test [2]; 0.107 µM in test [8]; 0.158 µM in [3]; 0.182 µM in test [5]; 0.164 µM in [7]. Also, the GI50 in test [6] is 0.107 µM; in [9] it was 0.154 µM. Moreover, the TGI in [1] was found to be 0.273 µM; in test [2] it was 0.196 µM; in test [8], 0.25 µM; in test [3] it was 0.318 µM; in test [5] it was 0.329 µM; in test [7] it was 0.329 µM. For the same compound, the concentration for total growth inhibition (TGI) in [6] turned out to be 0.262 µM; in [9], 0.46 µM.
Consider `O=C(Nc1n[nH]c2cc(-c3cc(F)ccc3F)ccc12)C1CC1`, for which the GI50 was > 25 µM in [1]; 13.2 µM in test [2]; 17.6 µM in test [8]; 15.7 µM in test [3]; > 14.5 µM in test [5]; 14.4 µM in test [7]. Moreover, the results for the GI50 in test [6] and in test [9] were > 22.3 µM and 9.31 µM, respectively. Moreover, the TGI in test [1], in test [2], in test [8], in test [3], in test [5] and in test [7] was > 25 µM each time. Also, the TGI in test [6] and in test [9] was > 25 µM in each case.
